Experimental data from patent US20080103127A1, “METHODS FOR TREATING DISRUPTIVE BEHAVIOR DISORDERS” (priority 2006, published 2008).

Legend:
[1] = test system: submissive rats; settings: cited from earlier work; for submissive behavior: treatment of the submissive subject for 3 weeks
[2] = test system: submissive rats; test: Reduction of Submissive Behavior Model (RSBM) of depression, dominant-submissive rat food competition test; format: in vivo, Sprague-Dawley rats
From the text: In this study, the effects of COMPOUND #7 on dominant or submissive behavior in pairs of rats competing for food are examined. It has been shown that anti-manic drugs, including anticonvulsants, decrease dominance and antidepressant drugs reduce submissiveness. This model uses dominant behavior as a model of mania and submissive behavior as a model of depression. The dominance and submissiveness is defined in a competition test and measured as the relative success of two food-restricted rats to gain access to a feeder. Rats are randomly paired and placed in an apparatus allowing them to compete for a food reward. The dominant-submissive relationship develops over a 2-week period. The submissive or dominant animals in pairs selected after 2 weeks of training were treated orally […] (b.i.d.) with COMPOUND #7 at 3 or 30 mg/kg for 5 weeks. The partner of the drug-treated animal was treated with vehicle.
The objective of this study was to determine if COMPOUND #7 is active in the Reduction of Submissive Behavior Model (RSBM) of depression and the Reduction of Dominant Behavior Model (RDBM) of mania. Measurements were made at two doses (3 and 30 mg/kg) after oral twice a day (b.i.d.) administration. The effect of the drug in the RSBM was compared to the effect of fluoxetine (10 mg/kg) and vehicle (0.5% methylcellulose). The effect of the drug in the RDBM was compared with the effect of lithium (100 mg/kg) and vehicle (0.5% methylcellulose). The endpoints measured were the development of a significant reduction of submissive or dominant behavior and its time of onset.
The DSR developed by two rats competing for food uses the apparatus in FIG. 1. The methodology and equipment are described in several publications. (See, Malatynska E, Goldenberg R, Shuck L, Haque A, Zamecki P, Crites G, Schindler N, Knapp R J. Reduction of submissive behavior in rats: a test for antidepressant drug activity. Pharmacology 2002; 64:8; Malatynska E, Rapp R, Crites G. Dominant behavior measured in a competition test as a model of mania. In: International Behavioral Neuroscience Society Meeting, ed. IBNSCapri, Italy, 2002, p 26.; Bonnet U. Moclobemide: therapeutic use and clinical studies. CNS Drug Rev 2003; 9:97; Danysz W, Plaznik A, Kostowski W, Malatynska E, Jarbe T U, Hiltunen A J, Archer T. Comparison of desipramine, amitriptyline, zimeldine and alaproclate in six animal models used to investigate antidepressant drugs. Pharmacol Toxicol 1988; 62:42; Knapp R J, Goldenberg R, Shuck C, Cecil A, Watkins J, Miller C, Crites G, Malatynska E. Antidepressant activity of memory-enhancing drugs in the reduction of submissive behavior model. Eur J Pharmacol 2002; 440:27; Kostowski W, Malatynska E, Plaznik A, Dyr W, Danysz W. Comparative studies on antidepressant action of alprazolam in different animal models. Pol J Pharmacol Pharm 1986; 38, 471; Malatynska E, De Leon I, Allen D, Yamamura Hi. Effects of amitriptyline on GABA-stimulated ^36Cl^− uptake in relation to a behavioral model of depression. Brain Res Bull 1995; 37:53; Malatynska E, Kostowski W. The effect of antidepressant drugs on dominance behavior in rats competing for food. Pol J Pharmacol Pharm 1984; 36:531; Malatynska E, Kostowski W. Desipramine antagonizes clonidine-induced suppression of dominance in rats: possible involvement of amygdaloid nuclei. Pol J Pharmacol Pharm 1988; 40:357).
In the experiments described in this report Sprague-Dawley rats weighing 160 to 180 g were used. Testing for the development of a DSR between paired rats begins with the random assignment of rats into pairs. Rats from pairs are housed separately between test sessions with other animals in groups of four. The animals are food-deprived overnight with free access to water.
The test involves placing each member of a pair in opposite chambers of the testing apparatus. These chambers are connected through a narrow tunnel with a small container of sweetened milk at the center. […]

[3] = test system: dominant rats; settings: administered to dominant rats; cited from earlier work

| SMILES | submissive behavior [1] | competitive behavior of dominant rats [3] | further results |
| --- | --- | --- | --- |
| CNCCCN1c2ccccc2CCc2ccccc21 [desipramine] | reduced submissive behavior | – | effect on submissive behavior after cessation of treatment ([1]; after cessation of treatment): attenuated |
| CN1C(=O)CN=C(c2ccccc2)c2cc(Cl)ccc21 [diazepam] | – | – | effect of treatment of submissive rats (anxiolytic) ([1]; Pharmacology 2002, 64:8): ineffective |
| CNCCC(Oc1ccc(C(F)(F)F)cc1)c1ccccc1 (stereo not shown) [fluoxetine, reference compound] | reduced submissive behavior | – | onset of significant effect on submissive rats (time of treatment) ([2]; 10 mg/kg i.p. once a day, previous experimental set): 3 weeks |
| NC(=O)N1c2ccccc2C=Cc2ccccc21 [carbamazepine] | – | significantly reduced competitive behavior | – |
| Clc1cccc(Cl)c1N=C1NCCN1 [clonidine] | – | significantly reduced competitive behavior | – |
| CC(N)Cc1ccccc1 (stereo not shown) [amphetamine, reference compound] | – | – | effect of treatment of submissive rats (psychostimulant) ([2]; unpublished observation): ineffective |
| CN(C)CCCN1c2ccccc2CCc2ccccc21 [imipramine] | reduced submissive behavior | – | – |
| CCCC(CCC)C(=O)[O-].[Na+] [sodium valproate] | – | significantly reduced competitive behavior | – |
